The source made the active and inactive calls. The rule behind the calls is not given here.
Tests used:
[1] = system: Rattus norvegicus; test: Antiinflammatory activity against rat assessed as inhibition of carrageenan-induced edema; format: functional
[2] = system: Rattus norvegicus; test: Antiinflammatory activity against rat assessed as inhibition of carrageenan-induced edema at 75 mg/kg; format: functional

SMILES	Activity [1]	inhibition in vivo at 75 mg/kg [2]	ED25 [1]
C[C@@H]1O[C@@H](O[C@H]2[C@H](Oc3cc(O)c4c(c3)O[C@H](c3ccc(O)cc3)CC4=O)O[C@H](CO)[C@@H](O)[C@@H]2O)[C@H](O)[C@H](O)[C@H]1O	inactive		
COc1ccc(-c2cc(=O)c3c(O)cc(OC)cc3o2)cc1 [APIGENIN DIMETHYLETHER]		25%	75 mg/kg
C[C@]12CCC(=O)C=C1CC[C@@H]1[C@@H]2[C@@H](O)C[C@@]2(C)[C@H]1CC[C@]2(O)C(=O)COP(=O)(O)O [HYDROCORTISONE PHOSPHORIC ACID]			13.5 mg/kg
COc1ccc(-c2cc(=O)c3c(OC)c(OC)c(OC)c(OC)c3o2)cc1OC [NOBILETIN]			20 mg/kg
CCCCC1C(=O)N(c2ccccc2)N(c2ccccc2)C1=O [PHENYLBUTAZONE]		81%	
